Test results published in patent publication US12497365B2, “4-pyridinyl formamide compound or derivative thereof, preparation method therefor, herbicidal composition and use thereof” (Qingdao Kingagroot Chemical Compound Co., Ltd., priority 2019, dated 2025).

What was measured:
Experiment in all cases: Weeding effect in post-emergence stage
Assay type in all cases: in vivo
Settings in all cases: active ingredient 2000 g/ha, 3 weeks after application, fresh weight control rate
[1] = system: Amaranthus retroflexus L.
Source text: (§1) The activity level criteria for plant damage (i.e., growth control rate) are as follows:
(§2) The above growth control rates are fresh weight control rates.
(§3) Experiment on weeding effect in post-emergence stage: monocotyledonous and dicotyledonous weed seeds and major crop seeds (wheat, corn, rice, soybean, cotton, oilseed rape, millet, sorghum) were placed in plastic pots filled with soil, then covered with 0.5-2 cm of soil, allowed to grow in a good greenhouse environment. After 2 weeks of sowing, the test plants were treated in the 2-3 leaf stage. The tested compounds of the present invention were respectively dissolved in acetone at the dosage of 2000, 1000, 500, 250, 125 g/ha, then added with Tween 80 and 1.5 liter/ha of emulsifiable concentrate of methyl oleate as synergist, diluted with a certain amount of water to obtain a solution with a certain concentration, and sprayed with a spray tower onto the plants. After the application, the plants were cultured for 3 weeks in the greenhouse, and then the experimental results were listed in Table 1.

[2] = system: Descurainia sophia
Source text: as §1, §2, §3

[3] = system: Chenopodium album
Source text: as §1, §2, §3

[4] = system: Abutilon theophrasti
Source text: as §1, §2, §3

Cn1nnnc1NC(=O)c1ccnc(-c2ccc(CBr)cc2)c1Cl [Compound 1-24]
Weeding effect, activity level (growth control rate), Amaranthus retroflexus L. [1]: 5 (Level 5: growth control rate is above 85%)
Weeding effect, activity level (growth control rate), Descurainia sophia [2]: 5 (Level 5: growth control rate is above 85%)
Weeding effect, activity level (growth control rate), Chenopodium album [3]: 5 (Level 5: growth control rate is above 85%)
Weeding effect, activity level (growth control rate), Abutilon theophrasti [4]: 5 (Level 5: growth control rate is above 85%)

Cn1nnnc1NC(=O)c1ccnc(-c2ccc(I)cc2)c1Cl [Compound 1-25]
Weeding effect, activity level (growth control rate), Amaranthus retroflexus L. [1]: 5 (Level 5: growth control rate is above 85%)
Weeding effect, activity level (growth control rate), Descurainia sophia [2]: 5 (Level 5: growth control rate is above 85%)
Weeding effect, activity level (growth control rate), Chenopodium album [3]: 5 (Level 5: growth control rate is above 85%)
Weeding effect, activity level (growth control rate), Abutilon theophrasti [4]: 5 (Level 5: growth control rate is above 85%)

Cn1nnnc1NC(=O)c1ccnc(-c2cccc(C(F)(F)F)c2)c1Cl [Compound 1-26]
Weeding effect, activity level (growth control rate), Amaranthus retroflexus L. [1]: 5 (Level 5: growth control rate is above 85%)
Weeding effect, activity level (growth control rate), Descurainia sophia [2]: 5 (Level 5: growth control rate is above 85%)
Weeding effect, activity level (growth control rate), Chenopodium album [3]: 5 (Level 5: growth control rate is above 85%)
Weeding effect, activity level (growth control rate), Abutilon theophrasti [4]: 5 (Level 5: growth control rate is above 85%)

Cn1nnnc1NC(=O)c1ccnc(-c2ccc(C(F)(F)F)cc2)c1Cl [Compound 1-27]
Weeding effect, activity level (growth control rate), Amaranthus retroflexus L. [1]: 5 (Level 5: growth control rate is above 85%)
Weeding effect, activity level (growth control rate), Descurainia sophia [2]: 5 (Level 5: growth control rate is above 85%)
Weeding effect, activity level (growth control rate), Chenopodium album [3]: 5 (Level 5: growth control rate is above 85%)
Weeding effect, activity level (growth control rate), Abutilon theophrasti [4]: 5 (Level 5: growth control rate is above 85%)

COc1ccccc1-c1nccc(C(=O)Nc2nnnn2C)c1Cl [Compound 1-28]
Weeding effect, activity level (growth control rate), Amaranthus retroflexus L. [1]: 5 (Level 5: growth control rate is above 85%)
Weeding effect, activity level (growth control rate), Descurainia sophia [2]: 5 (Level 5: growth control rate is above 85%)
Weeding effect, activity level (growth control rate), Chenopodium album [3]: 5 (Level 5: growth control rate is above 85%)
Weeding effect, activity level (growth control rate), Abutilon theophrasti [4]: 5 (Level 5: growth control rate is above 85%)

COc1cccc(-c2nccc(C(=O)Nc3nnnn3C)c2Cl)c1 [Compound 1-29]
Weeding effect, activity level (growth control rate), Amaranthus retroflexus L. [1]: 5 (Level 5: growth control rate is above 85%)
Weeding effect, activity level (growth control rate), Descurainia sophia [2]: 5 (Level 5: growth control rate is above 85%)
Weeding effect, activity level (growth control rate), Chenopodium album [3]: 5 (Level 5: growth control rate is above 85%)
Weeding effect, activity level (growth control rate), Abutilon theophrasti [4]: 5 (Level 5: growth control rate is above 85%)

COc1ccc(-c2nccc(C(=O)Nc3nnnn3C)c2Cl)cc1 [Compound 1-30]
Weeding effect, activity level (growth control rate), Amaranthus retroflexus L. [1]: 5 (Level 5: growth control rate is above 85%)
Weeding effect, activity level (growth control rate), Descurainia sophia [2]: 5 (Level 5: growth control rate is above 85%)
Weeding effect, activity level (growth control rate), Chenopodium album [3]: 5 (Level 5: growth control rate is above 85%)
Weeding effect, activity level (growth control rate), Abutilon theophrasti [4]: 5 (Level 5: growth control rate is above 85%)

Cn1nnnc1NC(=O)c1ccnc(-c2ccccc2OC(F)(F)F)c1Cl [Compound 1-31]
Weeding effect, activity level (growth control rate), Amaranthus retroflexus L. [1]: 5 (Level 5: growth control rate is above 85%)
Weeding effect, activity level (growth control rate), Descurainia sophia [2]: 5 (Level 5: growth control rate is above 85%)
Weeding effect, activity level (growth control rate), Chenopodium album [3]: 5 (Level 5: growth control rate is above 85%)
Weeding effect, activity level (growth control rate), Abutilon theophrasti [4]: 5 (Level 5: growth control rate is above 85%)

Cn1nnnc1NC(=O)c1ccnc(-c2cccc(OC(F)(F)F)c2)c1Cl [Compound 1-32]
Weeding effect, activity level (growth control rate), Amaranthus retroflexus L. [1]: 5 (Level 5: growth control rate is above 85%)
Weeding effect, activity level (growth control rate), Descurainia sophia [2]: 5 (Level 5: growth control rate is above 85%)
Weeding effect, activity level (growth control rate), Chenopodium album [3]: 5 (Level 5: growth control rate is above 85%)
Weeding effect, activity level (growth control rate), Abutilon theophrasti [4]: 5 (Level 5: growth control rate is above 85%)
